Data published in US20250263436A1, “BROAD-SPECTRUM ANTIVIRAL DRUG FOR ENTEROVIRUS, AND APPLICATION” (WUHAN INSTITUTE OF VIROLOGY, CHINESE ACADEMY OF SCIENCES, priority 2020, published 2025).
“And” between values parts separate entries of the source, which are not always exact repeats. Equal entries are not always repeated.

Tests used:
EV71 [1] = test: Inhibition of EV71 in RD cells (viral RNA, qRT-PCR); type: cell-based, enterovirus 71 (EV71); settings: anti-EV71 in RD cells
Method: (§1) (1) Different cells were plated in a 24-well plate.
(§2) (2) When the cells grew to a confluence of 70%-80%, the DMEM medium containing 10% serum was replaced with a DMEM medium containing 2% serum (the DMEM medium containing 2% serum was added in each well at an amount of 0.5 mL), and 5 μL of EV71 virus of 1×10^6 PFU/mL was added to each well.
(§3) (3) After 1 h, different polypeptides (RQ or control TAT) with final concentrations of 0.3125 μM, 0.625 μM, 1.25 μM, 2.5 μM, and 5 μM were added respectively. The group without polypeptide added was used as a control.
(§4) (4) The samples were collected 24 h after the infection of EV71 virus, and RNA was extracted with the total RNA extraction kit.
(§5) (5) The supernatant was discarded, then 350 μL of TRK lysate was added to each well, and the plate was put on a shaker for 5 min.
(§6) (6) 350 μL of 70% ethanol (DEPC) was added to each well, and then the plate was put on a shaker for 5 min.
(§7) (7) The solution in each well was transferred to a RNA extraction column for 1 min of centrifugation at 12000 g.
(§8) (8) The solution obtained in the recovery tube was reloaded on the column again for 1 min of centrifugation at 12000 g.
(9) RNA washing buffer 1 was added in the column for 30 s of centrifugation at 12000 g.
(10) RNA washing buffer 2 was added in the column for 1 min of centrifugation at 12000 g.
(11) Step (10) was repeated.
(12) The column alone was centrifuged at 12000 g for 2 min to completely remove the residual RNA washing buffer.
(13) 50 μL of DEPC water was added to the column for 2 min of centrifugation at 12000 g.
(§9) (14) 2 μL of RNA sample was subjected to a fluorescence quantitative experiment using the one step qRT-PCR kit.
(3) After 1 h, different polypeptides (RQ or control TAT) with final concentrations of 0.3125 μM, 0.625 μM, 1.25 μM, 2.5 μM and 5 μM were added respectively. The group without polypeptide added was used as a control.

EV71 [2] = test: Inhibition of EV71 in Vero cells (viral RNA, qRT-PCR); type: cell-based, enterovirus 71 (EV71); settings: anti-EV71 in Vero cells
Outline: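 Vero E6 cells in DMEM with 2% serum were infected with EV71 (5 μL of 1×10^6 PFU/mL per well); polypeptides at 0.3125–5 μM added 1 h later. At 24 h post-infection, total RNA extracted and viral RNA quantified by one-step qRT-PCR against untreated control.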

CVB3 = test: Inhibition of CVB3 in RD cells (viral RNA, qRT-PCR); type: cell-based; settings: inhibiting CVB3 in RD cells
Method: (1) RD cells were plated in a 24-well plate.
(2) When the cells grew to a confluence of 70%-80%, the DMEM medium containing 10% serum was replaced with a DMEM medium containing 2% serum (the DMEM medium containing 2% serum was added in each well at an amount of 0.5 mL), and 5 μL of CVB3 virus of 1×10^6 PFU/mL was added to each well.
(3) After 1 h, the polypeptides with final concentrations of 0.3125 μM, 0.625 μM, 1.25 μM, 2.5 μM, and 5 μM were added respectively. The group without polypeptide added was used as a control.
(4) The samples were collected 24 h after the infection of CVB3 virus, and RNA was extracted with the total RNA extraction kit.
as §5, §6, §7, §8
(§10) (9) RNA washing buffer 1 was added in the column for 30 s of centrifugation at 12000 g. […]
(14) 2 μL of RNA sample was subjected to a fluorescence quantitative experiment using the one step qRT-PCR kit. […]

293T cells = test: Toxicity assay in 293T cells (CCK-8); type: cell-based; settings: 24 h
Method: (§11) (1) Different cells were plated in a 96-well plate at 100 μL per well.
(§12) (2) When the cells grew to a confluence of 70%-80%, the DMEM medium containing 10% serum was replaced with a DMEM medium containing 2% serum, and a certain concentration gradient of polypeptide RQ was added, so that the final concentrations of the polypeptide in the wells were 0.073242 μM, 0.146484 μM, 0.292969 μM, 0.585938 μM, 1.171875 μM, 2.34375 μM, 4.6875 μM, 9.375 μM, 18.75 μM, 37.5 μM, 75 μM, 150 μM, and 300 μM, respectively.
(§13) (3) The samples were collected 24 h after the addition of the polypeptide, and then 10 μL of live cell detection reagent CCK-8 was added to each well and mixed well.
(§14) (4) The plate was placed at 37° C. for 2 h.
(§15) (5) The absorbance value at OD450 was detected by a microplate reader.

[3] = Toxicity assay in 293T cells (CCK-8); type: cell-based; settings: human, 293T cells, read-out: Viability of Huh7 cell (%)
Method: as §11, §12, §13, §14, §15

EV71 [4] = test: Inhibition of EV71 in huh7 cells (viral RNA, qRT-PCR); type: cell-based, enterovirus 71 (EV71); settings: anti-EV71 in huh7 cells
Method: as §1, §2, §3, §4, §5, §6, §7, §8, §10, §9

EV71 [5] = test: Inhibition of EV71 in 293T cells (viral RNA, qRT-PCR); type: cell-based, enterovirus 71 (EV71); settings: anti-EV71 in 293T cells
Method: as §1, §2, §3, §4, §5, §6, §7, §8, §10, §9

[6] = Table 15 (third cell line of Example 9), RQ 0.073242 μM

Which IC50 (EV71 [1]) does the source give for `CC[C@H](C)[C@H](NC(=O)[C@H](C)NC(=O)[C@H](CO)NC(=O)[C@H](CCCNC(=N)N)NC(=O)[C@H](CC(N)=O)NC(=O)[C@H](CC(N)=O)NC(=O)[C@H](Cc1ccc(O)cc1)NC(=O)[C@H](CCC(=O)O)NC(=O)[C@H](CCCNC(=N)N)NC(=O)CNC(=O)[C@H](CO)NC(=O)CNC(=O)[C@H](CCCNC(=N)N)NC(=O)[C@H](CCCNC(=N)N)NC(=O)[C@H](CCCNC(=N)N)NC(=O)[C@H](CCC(N)=O)NC(=O)[C@H](CCCNC(=N)N)NC(=O)[C@H](CCCNC(=N)N)NC(=O)[C@H](CCCCN)NC(=O)[C@H](CCCCN)NC(=O)[C@H](CCCNC(=N)N)NC(=O)CNC(=O)[C@@H](N)Cc1ccc(O)cc1)C(=O)NCC(=O)N[C@@H](CC(N)=O)C(=O)N[C@H](C(=O)N[C@H](C(=O)N[C@@H](CCC(=O)O)C(=O)N[C@@H](C)C(=O)N[C@@H](CC(C)C)C(=O)N[C@@H](Cc1ccccc1)C(=O)N[C@@H](CCC(N)=O)C(=O)O)[C@@H](C)CC)[C@@H](C)O` [RQ] here?
The IC50 was 1350 nM.

What about the IC50 (EV71 [2]) of the same molecule?
Its IC50 is 660 nM.

What about the IC50 (CVB3) of the same molecule?
Its IC50 is 2310 nM.

What about the “Viability of 293T cells” value (293T cells; [6]) of the same molecule?
Its value is 100.4267% and 97.87%.

What about the “Viability of 293T cells” value (293T cells; Table 15, RQ 0.146484 μM) of the same molecule?
Its value is 100.8922% and 100.9503%.

What about the “Viability of 293T cells” value (293T cells; Table 15, RQ 0.292969 μM) of the same molecule?
Its value is 102.4631% and 100.8922%.

What about the “Viability of 293T cells” value (293T cells; Table 15, RQ 0.585938 μM) of the same molecule?
The value was 102.8123% and 101.6486%.

What about the “Viability of 293T cells” value (293T cells; Table 15, RQ 1.171875 μM) of the same molecule?
Its value is 115.4383% and 103.5687%.

And the “Viability of 293T cells” value (293T cells; Table 15, RQ 2.34375 μM)?
The value was 100.3685% and 102.8704%.

And the “Viability of 293T cells” value (293T cells; Table 15, RQ 4.6875 μM)?
The value was 99.96% and 100.0776%.

And the “Viability of 293T cells” value (293T cells; Table 15, RQ 9.375 μM)?
The value was 99.96% and 94.03%.

And the “Viability of 293T cells” value (293T cells; Table 15, RQ 18.75 μM)?
The value was 99.9%.

And the “Viability of 293T cells” value (293T cells; Table 15, RQ 37.5 μM)?
The value was 101.1249% and 102.9286%.

What about the “Viability of 293T cells” value (293T cells; Table 15, RQ 75 μM) of the same molecule?
Its value is 98.97% and 99.5%.

And the “Viability of 293T cells” value (293T cells; Table 15, RQ 150 μM)?
Its value is 63.83% and 64.4104%.

And the Viability of 293T cells at 24 h, 0.073242 µM [3, 6]?
The Viability of 293T cells at 24 h, 0.073242 µM was 98.4%.

What about the Viability of 293T cells at 24 h, 0.146484 µM ([3]; Table 15, RQ 0.146484 μM) of the same molecule?
The Viability of 293T cells at 24 h, 0.146484 µM was 101%.

And the Viability of 293T cells at 24 h, 0.292969 µM ([3]; Table 15, RQ 0.292969 μM)?
Its Viability of 293T cells at 24 h, 0.292969 µM is 101%.

What about the Viability of 293T cells at 24 h, 0.585938 µM ([3]; Table 15, RQ 0.585938 μM) of the same molecule?
Its Viability of 293T cells at 24 h, 0.585938 µM is 100%.

And the Viability of 293T cells at 24 h, 1.17188 µM ([3]; Table 15, RQ 1.171875 μM)?
The Viability of 293T cells at 24 h, 1.17188 µM was 99.7%.

What about the Viability of 293T cells at 24 h, 2.34375 µM ([3]; Table 15, RQ 2.34375 μM) of the same molecule?
Its Viability of 293T cells at 24 h, 2.34375 µM is 99.1%.

What about the Viability of 293T cells at 24 h, 4.6875 µM ([3]; Table 15, RQ 4.6875 μM) of the same molecule?
The Viability of 293T cells at 24 h, 4.6875 µM was 98.6%.

What about the Viability of 293T cells at 24 h, 9.375 µM ([3]; Table 15, RQ 9.375 μM) of the same molecule?
Its Viability of 293T cells at 24 h, 9.375 µM is 99.7%.

And the Viability of 293T cells at 24 h, 18.75 µM ([3]; Table 15, RQ 18.75 μM)?
The Viability of 293T cells at 24 h, 18.75 µM was 100%.

And the Viability of 293T cells at 24 h, 37.5 µM ([3]; Table 15, RQ 37.5 μM)?
Its Viability of 293T cells at 24 h, 37.5 µM is 102%.

And the Viability of 293T cells at 24 h, 75 µM ([3]; Table 15, RQ 75 μM)?
Its Viability of 293T cells at 24 h, 75 µM is 102%.

What about the Viability of 293T cells at 24 h, 150 µM ([3]; Table 15, RQ 150 μM) of the same molecule?
The Viability of 293T cells at 24 h, 150 µM was 66.6%.

What about the IC50 (EV71 [4]) of the same molecule?
The IC50 was 410 nM.

What about the IC50 (EV71 [5]) of the same molecule?
Its IC50 is 3000 nM.
